The text below walks through data of patent EP3260120B1, “PHARMACOLOGICAL ADJUVANTS FOR THERMAL ABLATION OF CANCER” (Blasi, Paolo, priority 2016, dated 2017).

The data set has as its system human colon adenocarcinoma HT-29 cell line. Briefly: thermosensitizing or killing effect on HT-29 cells (cell count, ethidium bromide / fluorescein diacetate viability). Type of data set: cell-based. As to conditions: for Viability (%) / Total cells (x10^6) / Living cells (x10^6): mean ± S.D.; for Living cells (x10^6): viability % applied to total cells. Here is the method: The thermosensitizing or killing effect of omeprazole in acidic solution and that of liposome formulations was tested on human colon adenocarcinoma HT-29 cell line (Istituto Zooprofilattico Ubertini, Brescia, Italy). The cells were incubated under standard conditions: 5% CO2, 37°C, in McCOY'S 5A medium (Sigma-Aldrich, Milan, Italy) at pH 7.4 with sodium bicarbonate, antibiotics and antifungals (penicillin 100 U/mL, streptomycin 100 U/mL, amphotericin B 0.25 µg/mL) and 10% foetal bovine serum. A trypsin solution with EDTA was employed to detach the cells from the culture plates. The experimental protocol is reported in the following scheme: [formula] In detail: • 1)-HT-29 cells were seeded in 6-well culture plates (Falcon) with a 10 cm^2 area at a 250,000 cell/well concentration and 5 mL medium as indicated above. • 2)-After 72 h plating, the culture medium, with initial buffered pH=7.4, was replaced with unbuffered medium (without sodium bicarbonate), and 12 wells were maintained at 37°C, while 12 wells were destined for thermal treatment. In each group, three wells were treated with omeprazole in acidic solution, three with LUVs with acidic core and three with LUVs loaded with omeprazole in acidic solution, according to the concentrations reported in the previous scheme. […] At the end of the thermal treatment the cells were brought back into the incubator at 37°C. • 4)-After 24 h, the following parameters were evaluated for all the wells: Total number of cells (living and dead). After detachment of the cell monolayer with trypsin and EDTA, the total number of cells (living + dead) in each well was determined using a Countess cell counting machine (Invitrogen, Milan, Italy). Cell viability (%). Cell viability was evaluated by incubation of a detached cell suspension with ethidium bromide and fluorescein diacetate (Sigma-Aldrich, Milan, Italy). The cells were analysed with a fluorescent optical microscope (Olympus BX-41, Tokyo, Japan) using the filter for fluorescein. The images were recorded with an F-view digital camera (Olympus) and processed with F-view software (Olympus). With this method, the living cells are stained green and the dead cells red, as fluorescein diacetate is internalized by living cells and hydrolysed by cytoplasm esterases into the corresponding fluorochrome, fluorescein, which emits an intense green fluorescence, whereas ethidium bromide only penetrates cells with altered membranes, binding to nucleic acids and producing a red fluorescence. The living and dead cells were counted by a semi-manual method. A minimum of three images per well were acquired in distinct areas, representative of the corresponding cell suspension. For the group maintained at 37°C, an average of 2,500 cells was counted for each treatment type (constituted by three wells representing the single treatment performed in triplicate). Since the number of cells decreases noticeably for the wells treated at 45°C for 2 h, the number of recorded images was increased (from 9 to 16), and 2,700 to 3,500 cells were counted for each treatment type (constituted by three wells representing the single treatment performed in triplicate). Living cell (green) and dead cell (red) counts were acquired by marking each cell and recording the resulting cell number with Image J software. The percentage viability of the cells counted for each sample was calculated as follows: Viability(%) = (No. of living cells)/(No. of living cells + No. of dead cells)⋅100 [formula] Total number of living cells. The endpoint of the study was the total number of tumour cells surviving the different treatments. This value was calculated for each well by applying the viability percentage obtained by semi-manual counting to the total number of cells measured by the cell-counting machine. Statistical analysis. The data were subjected to statistical analysis with the paired Student's t-test and one-way ANOVA (SigmaPlot 12.0, Systat Software Inc.) with a 95% significance level. […]

[1] abbreviates: 37°C, 48 h incubation with treatment.
The mark [2] stands for this setting: 45°C for 2h after 24 h pre-incubation, evaluated 24 h after thermal treatment.

Structures are written as SMILES.

With `COc1ccc2[nH]c([S+]([O-])Cc3ncc(C)c(OC)c3C)nc2c1` (centres unmarked) [B, omeprazole], under setting [1], the “Viability (%)” value was 83.3 ± 2.4% and the “Living cells (x10^6)” value is 1.53 ± 0.22 x10^6. Under “37°C, 48 h of incubation”, the “decrease in number of surviving tumour cells versus untreated control” value is 25%. The “Total cells (x10^6)” value (37°C, living and dead cells per well, 48 h incubation with treatment) was 1.83 ± 0.25 x10^6. In addition, where the note is “45°C for 2 h, 24 h after heat shock”, the “reduction in number of living cells compared to heating only” value is 41%. Also, under setting [2], the “Total cells (x10^6)” value is reported as 0.66 ± 0.27 x10^6, the “Viability (%)” value is on record as 61.5 ± 4.4% and the “Living cells (x10^6)” value is reported as 0.40 ± 0.10 x10^6.
